Measured values from US20090054376A1, “BENZOFURAN DERIVATIVES WITH THERAPEUTIC ACTIVITIES” (Pharmos Corporation, priority 2005, published 2009).
“Also recorded” adds a separate entry of the source. Like-named read-outs stand apart in the source and are kept apart here.

Key:
IL-1β = experiment: Cytokine secretion into blood circulation in LPS injected mice, IL-1β; format: in vivo, Balb/C female mice; details: 2 mg/kg i.v., LPS 3 mg/kg i.p., plasma 90 minutes after LPS
Experimental: (§1) Balb/C female mice (average body weight 20 g, Harlan, Israel) were injected i.v. at a volume dosage of 5 ml/kg with either vehicle or test compounds at a dose of 2 mg/kg. Each treatment group comprised at least 9 animals. Immediately after compound or control administration, the mice were injected i.p. with 3 mg/kg LPS (E. coli 055:B5, Calbiochem). Ninety minutes after LPS induction, blood samples were collected into heparanized test tubes. Plasma was separated by centrifugation (10,000 rpm for 5 minutes at RT) and stored at −20° C. until assayed. The level of the inflammatory mediator under study, IL-1β, IL-6, IL-10 or TNF-α, was assayed by ELISA techniques.
(§2) The technique used to quantify the amount of a given protein in a liquid sample, either tissue culture supernatant or body fluid, is based on Enzyme Linked ImmunoSorbent Assay (ELISA) methodology. Either commercially available or established in house, the assay is based on the capture of the protein of interest by specific antibodies bound to the bottom of an ELISA plate well. Unbound material is washed away, the captured protein is then exposed to a secondary antibody generally labeled with horseradish peroxidase (HRP) or alkaline phosphatase (ALP). Again the unbound material is washed away, and the samples are then incubated with the appropriate substrate yielding a colorimetric reaction. The reaction is stopped and reading is performed in a spectrophotometer at the appropriate wavelength. Samples are tested at least in duplicate and the appropriate standard curve, consisting of serial dilutions of the recombinant target protein, is incorporated on each plate. The concentration of the protein in the sample is calculated from the standard curve.
(§3) The results are expressed as percent inhibition of secretion, taking into account the maximal cytokine concentration in vehicle “treated” animals and the baseline level in naïve animals. […] Inhibition above 50% was considered highly significant.

IL-6 = experiment: Cytokine secretion into blood circulation in LPS injected mice, IL-6; format: in vivo, Balb/C female mice; details: 2 mg/kg i.v., LPS 3 mg/kg i.p., plasma 90 minutes after LPS
Experimental: as §1, §2, §3

IL-10 = experiment: Cytokine secretion into blood circulation in LPS injected mice, IL-10; format: in vivo, Balb/C female mice; details: 2 mg/kg i.v., LPS 3 mg/kg i.p., plasma 90 minutes after LPS
Experimental: as §1, §2, §3

TNF-α = experiment: Cytokine secretion into blood circulation in LPS injected mice, TNF-α; format: in vivo, Balb/C female mice; details: 2 mg/kg i.v., LPS 3 mg/kg i.p., plasma 90 minutes after LPS
Experimental: as §1, §2, §3

[1] = system: visceral pain writhing responses; experiment: Visceral pain, acetic acid induced writhing responses; format: in vivo, Male ICR mice; details: single dose 2 mg/kg i.v., compared to untreated group
[2] = system: carrageenan induced inflammatory pain and paw edema; experiment: Inflammatory pain and paw edema induced by carrageenan; format: in vivo, Male Sprague Dawley rats; details: 10 mg/kg i.p.; for inhibition in vivo at 10 mg/kg: Rattus norvegicus, ip
How it was run: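 Male Sprague Dawley rats (~200 g) received 0.1 ml 2% λ-carrageenan subplantar in the right paw; compounds given i.p. at 3, 10 or 20 mg/kg (some p.o.) immediately after. Thermal (Hargreaves) latency, mechanical threshold, paw thickness and volume measured at 0 and 3 h; values are inter-paw differences ([…], ΔForce), volume as % of vehicle.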

[3] = system: CB1 related cannabimimetic activity; experiment: Safety: body temperature, catalepsy, spontaneous locomotor activity, elevated plus maze, sensitivity to touch; format: in vivo, ICR male mice; details: 2 mg/kg i.v.
Experimental: In the present study, impact of compounds of the invention on the central nervous system was measured by monitoring the body temperature, catalepsy and spontaneous locomotor activity of rodents. These activities are part of the Tetrad assays which are indicative, if all parameters are affected, of CB1 mediated activity. In addition, lack of CNS psychomimetic effect was assessed in the elevated plus maze model. Finally, sensitivity to touch was determined in order to evaluate peripheral CB1 related activity.
ICR male mice (average body weight 25 g, Harlan, Israel) were administered the compounds of the invention i.v. at a dose of 2 mg/kg and at a volume dose of 5 ml/kg. The psychoactive cannabinoid HU-210 was used as positive control at the 100-fold lower dose of 0.02 mg/kg i.v. The following measurements were made starting 15 minutes after compound administration. All tests were completed for each animal within approximately 10 minutes. Rectal temperature was monitored using a thermistor probe (YSI model 400, USA). Spontaneous locomotion was assessed using the open field methodology. The number of squares crossed by the animals were recorded and analyzed during a period of three minutes. At the end of the open field test, the animals were tested for catalepsy symptoms. This was carried out by gently forcing the animal to stand on its hind paws when its front paws are holding on an elevated beam. The time for the animal to step down of the beam was measured in seconds. A normal animal withdraws the beam immediately whereas cataleptic animal tend to stay on the beam. The longer the animal stays leaning on the beam, the more cataleptic the animal is. The behavior of the animals was then assessed in the elevated plus maze. The elevated plus maze consists of two open arms and two arms that are enclosed by high walls (arms 30×10 cm, wall height 20 cm). The elevated plus maze is usually elevated 80 cm above the floor. The mouse is placed on the maze head facing an open arm, and the time spent in the different compartments of the maze (open arms, closed arms and central area) are measured for the next 5 minutes. Results are expressed as percent of the time spent in the open arms, normal animals preferring to stay in the closed arms of the maze. Finally, animals were gently touched by an observer blinded for the treatment group and their sensitivity scored according to the following scale: 0 not sensitive, 1 sensitive and 2 highly sensitive. Results are expressed as average±SEM. At the end of the study, the animals were euthanized.

[4] = 10 mg/kg i.v.; cited from earlier work
[5] = system: pentobarbital-induced sleep; details: 10 mg/kg i.v.; cited from earlier work
[6] = system: visceral pain writhing responses; experiment: Tolerance: repeated administration in the model of Visceral Pain; format: in vivo, mice; details: tested day 11 at 2 mg/kg i.v.
Experimental: Male ICR mice (average body weight 25 g, Harlan, Israel) were pretreated by i.v. injection at volume dose of 5 ml/kg of vehicle, control and test compounds at various doses. Other routes of administration were tested for selected compounds including i.m. or s.c. injections at volume dose of 2.5 ml/kg and p.o. gavage at volume dose of 5 ml/kg. Compounds were dissolved in CREMOPHOR®:Ethanol and diluted 1:20 in saline prior to injection or gavage. Compounds administered i.v. were injected fifteen minutes before pain induction, whereas compounds administered i.m., s.c. or p.o. were supplied thirty minutes before pain induction, unless otherwise indicated. Each treatment group, except for controls comprising at least 30 animals, was composed of at least 6 animals. Fifteen or thirty minutes after drug administration, depending on the route of administration, the mice were injected i.p. with 10 ml/kg of 0.6% acetic acid and the number of visceral pain related behaviors (writhing movements globally defined as WR, i.e. stretching, contractions of the abdomen accompanied by an elongation of the body and extension of the hind limbs) was counted over a period of 5 minutes, starting 5 minutes after the acetic acid administration. These visceral pain related behaviors were globally defined as writhing responses (WR). The results are expressed as mean number of writhing responses ±SEM. Data were analyzed using analysis of variance (ANOVA) followed by post-hoc Fisher test.
Briefly compounds of the invention were administered at 10 mg/kg i.p. daily for 10 days and their analgesic activity was tested on day 11 as described in Example 17 (namely at 2 mg/kg i.v.). […] Each treatment group comprised 10 animals.

With `CCCCCCC(C)(C)c1cc(O)c2c(c1)OC1C(O)CCCC21` (stereo not shown) [Compound C6S-5, 3-(1,1-Dimethylheptyl)-5a,6,7,8,9,9a-hexahydro-dibenzofuran-1,6-diol] the “Inhibition of cytokine secretion into blood circulation, IL-1β” value (IL-1β) was “NO (NO indicates that the compound tested did not significantly affect the level of cytokine in plasma of LPS injected mice and that its activity is comparable to vehicle, within ±20% from this control)”, the “Inhibition of cytokine secretion into blood circulation, IL-6” value (IL-6) was 85% and the “Inhibition of cytokine secretion into blood circulation, IL-10” value (IL-10) was 84%. The “Inhibition of cytokine secretion into blood circulation, TNF-α” value (TNF-α) was “NO (NO indicates that the compound tested did not significantly affect the level of cytokine in plasma of LPS injected mice and that its activity is comparable to vehicle, within ±20% from this control)”, the inhibition in vivo at 2 mg/kg ([1]; Mus musculus, iv, read-out: Percent Inhibition of Visceral Pain Writhing Responses) was 35% and the inhibition in vivo at 10 mg/kg ([2]; 3 hours after carrageenan, reduction in paw swelling, read-out: Percent Inhibition of Inflammatory Pain Responses, Edema) was 56%. For the same compound, the inhibition in vivo at 10 mg/kg ([2]; 3 hours, mechanical stimulus, read-out: Percent Inhibition of Inflammatory Pain Responses, ΔForce) was 34%, the inhibition in vivo at 10 mg/kg ([2]; 3 hours, thermal stimulus, read-out: Percent Inhibition of Inflammatory Pain Responses, ΔLT) was 61% and the “adverse cannabimimetic activities in any of the parameters monitored” value [3] was “None”.

In the case of `C=C(C)[C@@H]1CC[C@](C)(O)[C@H]2Oc3cc(CCCCC)cc(O)c3[C@@H]12` [CBE], the “effect on body temperature of mice” value [4] is listed as “does not affect body temperature of mice” and the “prolongation of pentobarbital-induced sleep” value [5] is listed as “nor does it prolong pentobarbital-induced sleep”.

For `CCCCCCC(C)(C)c1cc(O)c2c(c1)OC1CCCCCC21` (stereo not drawn) [Compound C7S-1, 2-(1,1-dimethylheptyl)-5,6,7,8,9,9a-hexahydro-4bH-10-oxa-benzo[α]azulen-4-ol], the “Inhibition of cytokine secretion into blood circulation, IL-1β” value (IL-1β) was “NO (NO indicates that the compound tested did not significantly affect the level of cytokine in plasma of LPS injected mice and that its activity is comparable to vehicle, within ±20% from this control)”, the “Inhibition of cytokine secretion into blood circulation, IL-6” value (IL-6) was 82% and the “Inhibition of cytokine secretion into blood circulation, IL-10” value (IL-10) was 82%. The “Inhibition of cytokine secretion into blood circulation, TNF-α” value (TNF-α) was “NO (NO indicates that the compound tested did not significantly affect the level of cytokine in plasma of LPS injected mice and that its activity is comparable to vehicle, within ±20% from this control)”, the “Percent Inhibition of Visceral Pain Writhing Responses” value [1] was 76% and the “Percent Inhibition of Inflammatory Pain Responses, Edema” value ([2]; 3 hours after carrageenan, reduction in paw swelling) was 60%. The “Percent Inhibition of Inflammatory Pain Responses, ΔForce” value ([2]; 3 hours, mechanical stimulus) was 13%, the “Percent Inhibition of Inflammatory Pain Responses, ΔLT” value ([2]; 3 hours, thermal stimulus) was 0% and the “adverse cannabimimetic activities in any of the parameters monitored” value [3] was “None”. For the same compound, the “decrease of rectal temperature” value ([3]; non-significant) was “about 1.2 °C” and the rectal temperature ([3]; vehicle 38.88±0.11° C.) was 37.45±0.39 °C.

For `CN1CC[C@]23c4c5ccc(O)c4O[C@H]2[C@@H](O)C=C[C@H]3[C@H]1C5` [morphine, reference compound], the “Percent Inhibition of Visceral Pain Writhing Responses” value ([1]; 2 mg/kg) was “eradicated the pain response; also recorded: totally eliminated the pain response”, the “writhing responses on day 11” value ([6]; repeated administration daily for 10 days (10 mg/kg i.p.), vehicle 29.75±1.09) was 9.60±2.85 and the “reduction in pain response after repeated administration” value ([6]; repeated administration daily for 10 days) was 68%.
